Legend:
Assay in all cases: combination Emax (second highest fraction inhibited in the dose matrix, 72 h); higher = more inhibition; extreme values may be limits of the assay
[1] = system: ASH-3 (Thyroid Gland Carcinoma)
How it was run: (§1)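 After 24 hours at 37°C and 5% CO2 in 1536-well plates, cells in DMEM/F12 or RPMI plus 10% FBS received two-drug dose matrices for 72 hours. Viability came from CellTiter-Glo 2.0 luminescence and was scaled as inhibition, anchored at 0 by vehicle wells and at 1 by blank wells. Combination Emax is taken as the second-highest inhibition in the matrix, and Bliss excess as the observed combination effect less EA + EB − EA·EB, with EA and EB the single-agent effects.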

[2] = system: BT-20 (Breast Carcinoma)
How it was run: as §1

[3] = system: EW-18 (Ewing's Sarcoma)
How it was run: as §1

[4] = system: GOTO (Neuroblastoma)
How it was run: as §1

[5] = system: HSC-2 (Oral Cavity Carcinoma)
How it was run: as §1

[6] = system: JHH-7 (Hepatocellular Carcinoma)
How it was run: as §1

[7] = system: KU-19-19 (Bladder Carcinoma)
How it was run: as §1

[8] = system: LOU-NH91 (Squamous Cell Lung Carcinoma)
How it was run: as §1

[9] = system: MFE-319 (Endometrial Carcinoma)
How it was run: as §1

[10] = system: NB7 (Neuroblastoma)
How it was run: as §1

[11] = system: NCI-H2347 (Lung Adenocarcinoma)
How it was run: as §1

[12] = system: NCI-H2405 (Lung Adenocarcinoma)
How it was run: as §1

[13] = system: NCI-H322M (Lung Adenocarcinoma)
How it was run: as §1

[14] = system: NCI-N87 (Gastric Carcinoma)
How it was run: as §1

[15] = system: OCUM-1 (Gastric Carcinoma)
How it was run: as §1

[16] = system: OVISE (Ovarian Carcinoma)
How it was run: as §1

[17] = system: PF-382 (T-Lymphoblastic Leukemia)
How it was run: as §1

[18] = system: RPMI-7951 (Melanoma)
How it was run: as §1

[19] = system: SCC-3 (B-Cell Non-Hodgkin's Lymphoma)
How it was run: as §1

[20] = system: TGBC11TKB (Gastric Carcinoma)
How it was run: as §1

SMILES | combination Emax [1] | combination Emax [2] | combination Emax [3] | combination Emax [4] | combination Emax [5] | combination Emax [6] | combination Emax [7] | combination Emax [8] | combination Emax [9] | combination Emax [10] | combination Emax [11] | combination Emax [12] | combination Emax [13] | combination Emax [14] | combination Emax [15] | combination Emax [16] | combination Emax [17] | combination Emax [18] | combination Emax [19] | combination Emax [20]
CCN(CCO)CCCOc1ccc2c(Nc3cc(CC(=O)Nc4cccc(F)c4)[nH]n3)ncnc2c1 [AZD2811] + C=CCn1c(=O)c2cnc(Nc3ccc(N4CCN(C)CC4)cc3)nc2n1-c1cccc(C(C)(C)O)n1 [AZD1775] (first compound max 1 µM, partner max 1 µM) | 0.103 | 0.455 | 0.635 | 0.883 | 0.43 | 0.162 | 0.765 | 0.383 | 0.578 | 0.662 | 0.32 | 0.128 | 0.801 | 0.66 | 0.482 | 0.571 | 0.978 | 0.697 | 0.923 | 0.818
CCN(CCO)CCCOc1ccc2c(Nc3cc(CC(=O)Nc4cccc(F)c4)[nH]n3)ncnc2c1 [AZD2811] + C[C@@H]1COCCN1C2=NC(=NC(=C2)C3(CC3)[S@](=N)(=O)C)C4=C5C=CNC5=NC=C4 [AZD6738] (first compound max 1 µM, 7x7, partner max 10 µM) | 0.486 | 0.443 | 0.743 | 0.893 | 0.68 | 0.275 | 0.779 | 0.27 | 0.668 | 0.603 | 0.343 | 0.26 | 0.852 | 0.744 | 0.708 | 0.663 | 0.916 | 0.856 | 0.973 | 0.791
CCN(CCO)CCCOc1ccc2c(Nc3cc(CC(=O)Nc4cccc(F)c4)[nH]n3)ncnc2c1 [AZD2811] + O=C(c1cc(Cc2n[nH]c(=O)c3ccccc23)ccc1F)N1CCN(C(=O)C2CC2)CC1 [Olaparib] (first compound max 1 µM, 7x7, partner max 10 µM) | 0.249 | 0.286 | 0.667 | 0.654 | 0.439 | 0.218 | 0.381 | 0.332 | 0.245 | 0.473 | 0.186 | 0.234 | 0.182 | 0.293 | 0.379 | 0.272 | 0.893 | 0.328 | 0.488 | 0.408
CN(CCO)CC[C@H](CSc1ccccc1)Nc1ccc(S(=O)(=O)NC(=O)c2ccc(N3CCC([C@@H](O)c4ccccc4-c4ccc(Cl)cc4)CC3)cc2)cc1S(=O)(=O)C(F)(F)F [AZD4320] + C=CCn1c(=O)c2cnc(Nc3ccc(N4CCN(C)CC4)cc3)nc2n1-c1cccc(C(C)(C)O)n1 [AZD1775] (first compound max 1 µM, partner max 1 µM) | 0.531 | 0.787 | 0.888 | 0.855 | 0.639 | 0.524 | 0.964 | 0.822 | 0.944 | 0.689 | 0.571 | 0.193 | 0.851 | 0.888 | 0.87 | 0.939 | 1 | 0.879 | 0.779 | 0.964
CN(CCO)CC[C@H](CSc1ccccc1)Nc1ccc(S(=O)(=O)NC(=O)c2ccc(N3CCC([C@@H](O)c4ccccc4-c4ccc(Cl)cc4)CC3)cc2)cc1S(=O)(=O)C(F)(F)F [AZD4320] + CCN(CCO)CCCOc1ccc2c(Nc3cc(CC(=O)Nc4cccc(F)c4)[nH]n3)ncnc2c1 [AZD2811] (first compound max 1 µM, 7x7, partner max 1 µM) | 0.619 | 0.653 | 0.888 | 0.649 | 0.827 | 0.538 | 0.498 | 0.877 | 0.647 | 0.267 | 0.476 | 0.137 | 0.0611 | 0.571 | 0.924 | 0.828 | 1 | 0.647 | 0.316 | 0.439
CN(CCO)CC[C@H](CSc1ccccc1)Nc1ccc(S(=O)(=O)NC(=O)c2ccc(N3CCC([C@@H](O)c4ccccc4-c4ccc(Cl)cc4)CC3)cc2)cc1S(=O)(=O)C(F)(F)F [AZD4320] + CN(C)CCCOc1ccc(-c2ccc3ncc4c(c3c2)n(C2CCOCC2)c(=O)n4C)cn1 [AZD0156] (first compound max 1 µM, 7x7, partner max 1 µM) | 0.498 | 0.411 | 0.91 | 0.481 | 0.269 | 0.425 | 0.098 | 0.476 | 0.288 | 0.108 | 0.45 | 0.224 | 0.172 | 0.477 | 0.734 | 0.806 | 0.98 | 0.333 | 0.361 | 0.258
CN(CCO)CC[C@H](CSc1ccccc1)Nc1ccc(S(=O)(=O)NC(=O)c2ccc(N3CCC([C@@H](O)c4ccccc4-c4ccc(Cl)cc4)CC3)cc2)cc1S(=O)(=O)C(F)(F)F [AZD4320] + C[C@@H]1COCCN1C2=NC(=NC(=C2)C3(CC3)[S@](=N)(=O)C)C4=C5C=CNC5=NC=C4 [AZD6738] (first compound max 1 µM, 7x7, partner max 10 µM) | 0.662 | 0.765 | 0.897 | 0.909 | 0.925 | 0.524 | 0.878 | 0.575 | 0.928 | 0.691 | 0.656 | 0.415 | 0.915 | 0.845 | 0.914 | 0.961 | 1 | 0.951 | 0.941 | 0.935
CN(CCO)CC[C@H](CSc1ccccc1)Nc1ccc(S(=O)(=O)NC(=O)c2ccc(N3CCC([C@@H](O)c4ccccc4-c4ccc(Cl)cc4)CC3)cc2)cc1S(=O)(=O)C(F)(F)F [AZD4320] + C[C@@H](Nc1cc(F)cc(F)c1)c1cc(C(=O)N(C)C)cc2c(=O)cc(N3CCOCC3)oc12 [AZD8186] (first compound max 1 µM, 7x7, partner max 3 µM) | 0.682 | 0.614 | 0.914 | 0.831 | 0.897 | 0.368 | 0.315 | 0.768 | 0.427 | 0.49 | 0.698 | 0.417 | 0.506 | 0.638 | 0.884 | 0.881 | 1 | 0.701 | 0.543 | 0.338
CN(CCO)CC[C@H](CSc1ccccc1)Nc1ccc(S(=O)(=O)NC(=O)c2ccc(N3CCC([C@@H](O)c4ccccc4-c4ccc(Cl)cc4)CC3)cc2)cc1S(=O)(=O)C(F)(F)F [AZD4320] + Cc1cc2ncnn2cc1Nc1ncc2c(n1)n(C1CCOCC1)c(=O)n2C [AZD7648] (first compound max 1 µM, 7x7, partner max 10 µM) | 0.542 | 0.606 | 0.883 | 0.633 | 0.461 | 0.344 | 0.119 | 0.346 | 0.264 | 0.0542 | 0.432 | 0.186 | 0.254 | 0.544 | 0.744 | 0.779 | 0.983 | 0.516 | 0.337 | 0.237
CN(CCO)CC[C@H](CSc1ccccc1)Nc1ccc(S(=O)(=O)NC(=O)c2ccc(N3CCC([C@@H](O)c4ccccc4-c4ccc(Cl)cc4)CC3)cc2)cc1S(=O)(=O)C(F)(F)F [AZD4320] + Cn1cnc2c(F)c(Nc3ccc(Br)cc3Cl)c(C(=O)NOCCO)cc21 [Selumetinib] (first compound max 1 µM, 7x7, partner max 3 µM) | 0.728 | 0.746 | 0.881 | 0.85 | 0.768 | 0.276 | 0.937 | 0.662 | 0.522 | 0.507 | 0.68 | 0.572 | 0.642 | 0.604 | 0.996 | 0.786 | 1 | 0.526 | 0.546 | 0.469
COc1nnc2ccc(N3CCC(c4ccc(OCCN5CCN(C)C(=O)[C@H]5C)cc4)CC3)nn12 [AZD5153] + C=CCn1c(=O)c2cnc(Nc3ccc(N4CCN(C)CC4)cc3)nc2n1-c1cccc(C(C)(C)O)n1 [AZD1775] (first compound max 1 µM, partner max 1 µM) | 0.742 | 0.471 | 0.687 | 0.919 | 0.679 | 0.316 | 0.731 | 0.948 | 0.741 | 0.587 | 0.413 | 0.429 | 0.841 | 0.717 | 0.511 | 0.767 | 0.999 | 0.802 | 0.9 | 0.831
COc1nnc2ccc(N3CCC(c4ccc(OCCN5CCN(C)C(=O)[C@H]5C)cc4)CC3)nn12 [AZD5153] + CC1(C)CCC(CN2CCN(c3ccc(C(=O)NS(=O)(=O)c4ccc(NCC5CCOCC5)c([N+](=O)[O-])c4)c(Oc4cnc5[nH]ccc5c4)c3)CC2)=C(c2ccc(Cl)cc2)C1 [Venetoclax] (first compound max 1 µM, 7x7, partner max 1 µM) | 0.718 | 0.138 | 0.615 | 0.813 | 0.662 | 0.348 | 0.63 | 0.641 | 0.324 | 0.37 | 0.331 | 0.319 | 0.515 | 0.592 | 0.567 | 0.549 | 0.871 | 0.559 | 0.887 | 0.324

Reference: the supplement of paper PMC11061612
